Values of other authors in patent US7056734B1, “Differentiation of non-insulin producing cells into insulin producing cells by GLP-1 or exendin-4 and uses thereof” (The United States of America as represented by the …, priority 1998, dated 2006).

Tested on: AR42J cells
Settings: Mashima et al., 1996; cited from earlier work

## HGF: hepatocyte growth factor
  AR42J cells converted into insulin-producing / insulin positive cells: about 3%
